{"source": "patent US8507545B2", "about": "“Cytotoxic T cell activator comprising EP4 agonist” (National University Corporation, Hamamatsu University …, priority 2007, dated 2013)", "key": {"TRP-2-specific CTLs [1]": {"system": "TRP-2-specific CTLs", "test": "Activation of cytotoxic T cells in isolated Langerhans cells co-cultured with lymphocytes", "type": "cell-based, C57BL/6(B6) mouse", "protocol": "A given area of an auricle epidermal sheet was removed from the corneal layer of one auricle of each C57BL/6(B6) mouse, and trypsinized to yield an epidermal cell suspension. The epidermal cell suspension obtained was subjected to panning using an antibody specific for I-A^b antigen to isolate epidermal Langerhans cells. After each test substance (TRP-2 (concentration; 10 μg/mL) and Compound A-(1) (1 μM)) was added to the Langerhans cells isolated (cell density; 10^5 cells per mL), the cells were cultured with a medium (cRPMI1640 medium; Sigma-Aldrich Japan). Half a day later, the cells were co-cultured with splenocytic lymphocytes isolated from […] for 7 days. Subsequently, by a flowcytometric analysis (FACScaliber; Becton, Dickinson and Company.) using a tetramer (Medical & Biological Laboratories Co., Ltd.), the frequency of TRP-2-specific CTLs was determined relative to the total number of mononucleocytes in the medium as 100. Three experimental groups were established: (1) a group with no treatment, (2) a group with the addition of TRP-2, and (3) a group with the addition of both TRP-2 and Compound A-(1)."}, "TRP-2-specific CTLs [2]": {"system": "TRP-2-specific CTLs", "test": "Activation of cytotoxic T cells in cervical lymph nodes after tape stripping (TRP-2 tetramer flow cytometry)", "type": "in vivo, C57BL/6(B6) mice", "conditions": "relative to total mononucleocytes as 100", "protocol": "(§1) The corneal layers of the auricles of C57BL/6(B6) mice were destroyed by repeating a stripping procedure using an adhesive tape in 10 cycles, and an antigen peptide or EP4 agonist was applied as a test substance. The antigen peptide used was a melanoma-specific antigen peptide (Accord K.K. Peptide Business Department; hereinafter abbreviated TRP-2) in solution in 70% ethanol; 10 μg was applied to one side of each auricle. The EP4 agonist used was 11α,15α,-dihydroxy-9-oxo-16-(3-methoxymethylphenyl)-17,18,19,20-tetranol-3,7-dithiaprost-13E-enoic acid (hereinafter abbreviated Compound A-(1)) in solution in a mixed solvent of acetone:olive oil=10:1; 20 μL of 100 μM solution was applied to one side of each auricle. One week after application of the test substance, the cervical lymph nodes were removed. The frequency of TRP-2-specific CTLs was determined relative to the total number of mononucleocytes in the cervical lymph nodes as 100 by a flowcytometric analysis (FACScaliber; Becton, Dickinson and Company.) with a tetramer (Medical & Biological Laboratories Co., Ltd.). Four experimental groups were established: (1) a group undergoing tape stripping (hereinafter abbreviated TS) alone, (2) a group undergoing TS followed by application of TRP-2, (3) a group undergoing TS followed by application of Compound A-(1), and (4) a group undergoing TS followed by application of TRP-2 and Compound A-(1).\nNote that the melanoma-specific antigen peptide TRP-2 was synthesized on the basis of a partial sequence described in the aforementioned Non-patent Document 1 (SEQ ID NO. 1) (Accord K.K. Peptide Business Department).\nThe same procedures as Example 1(1) were followed except that the EP4 agonists used were 4-[(2-{(2R)-2-[(1E,3S)-4-(4-fluorophenyl)-3-hydroxybut-1-enyl]-5-oxopyrrolidin-1-yl}ethyl)sulfanyl]butanoic acid (hereinafter abbreviated Compound L-(1)) and 4-{[2-((1R,2R,3R)-3-hydroxy-2-{(1E,3S)-3-hydroxy-4-[3-(methoxymethyl)phenyl]but-1-enyl}-5-oxocyclopentyl)ethyl]sulfanyl}butanoic acid (hereinafter abbreviated Compound M-(1)); the action of each compound to activate cytotoxic T cells was evaluated. Four experimental groups were established: (1) a group undergoing TS alone, (2) a group undergoing TS followed by application of TRP-2, (3) a group undergoing TS followed by application of TRP-2 and Compound L-(1), and (4) a group undergoing TS followed by application of TRP-2 and Compound M-(1)."}, "B16 melanoma cells": {"system": "B16 melanoma cells", "test": "Melanoma growth suppressing action", "type": "in vivo, B6 mouse", "conditions": "TS followed by application of TRP-2, experimental group (2)", "protocol": "The corneal layer was removed from the right auricle of each B6 mouse by TS in the same manner as Example 1, and test substances (TRP-2 and Compound A-(1)) were applied there; 2 weeks later, the left auricle was treated in the same manner. The test substances applied to both ears were used in the same combination; TRP-2 was applied at 10 μg for one side of each auricle, and Compound A-(1) was applied at 20 μl, of 100 μM solution for one side of each auricle. Four days after the above-described treatment, each mouse received 2×10^5 B16 melanoma cells (RIKEN's Cell Bank) by subcutaneous transplantation, and examined for tumor growth. Experimental groups were established as in Example 1(1) (5 animals in each group).\nTumor diameter (mm), as an index of tumor growth, was measured in each group at various days after inoculation of B16 melanoma cells; the results are shown in FIG. 1."}, "HSVgpB-specific CTLs": {"system": "HSVgpB-specific CTLs", "test": "Activation of cytotoxic T cells in cervical lymph nodes after tape stripping (HSVgpB pentamer flow cytometry)", "type": "in vivo, C57BL/6(B6) mice", "conditions": "Example 1(3)", "protocol": "as §1\nThe same procedures as Example 1(1) were followed except that the antigen peptide used was the herpes simplex virus-specific antigen HSV glycoprotein B (hereinafter abbreviated HSVgpB), and that a flowcytometric analysis with a pentamer (ProImmune Company) was performed, and the action of each compound to activate cytotoxic T cells was evaluated. Five experimental groups were established: (1) a group undergoing TS alone, (2) a group undergoing TS followed by application of HSVgpB, (3) a group undergoing TS followed by application of HSVgpB and Compound A-(1), (4) a group undergoing TS followed by application of HSVgpB and Compound L-(1), and (5) a group undergoing TS followed by application of HSVgpB and Compound M-(1).\nNote that the herpes simplex virus-specific antigen peptide HSVgpB was synthesized on the basis of the partial sequence shown by SEQ ID NO. 2 (Virology, Vol. 195, pp. 62-70, (1993)) (ProImmune Company)."}, "[3]": {"conditions": "TS followed by application of HSVgpB and the EP4 agonist"}, "[4]": {"conditions": "Example 1(2), TS followed by application of TRP-2 and the EP4 agonist, cervical lymph nodes"}}}
{"compound": "TRP-2: melanoma-specific antigen peptide; tyrosinase-related protein 2 181-188, partial sequence VYDFFVWL (SEQ ID NO. 1) (Tyrosinase-related protein 2 residues 181-188) [reference compound]", "values": [{"measurement": "Ratio of TRP-2-specific CTLs", "setting": "TRP-2-specific CTLs [1]; addition of TRP-2 (10 μg/mL) alone, 7 days co-culture, relative to total mononucleocytes in the medium as 100", "result": 3.2}, {"measurement": "ratio of TRP-2-specific CTLs in B6 splenocytic lymphocytes", "setting": "TRP-2-specific CTLs [1]; addition of TRP-2, experimental group (2)", "result": "increased"}, {"measurement": "Ratio of TRP-2-specific CTLs", "setting": "TRP-2-specific CTLs [2]; Example 1(1), TS followed by application of the test substance alone, cervical lymph nodes one week after application", "result": 0.35}, {"measurement": "Ratio of TRP-2-specific CTLs", "setting": "TRP-2-specific CTLs [2]; Example 1(2), TS followed by application of TRP-2 alone, cervical lymph nodes", "result": 1.28}, {"measurement": "tumor growth suppressing action compared with an EP4 agonist alone", "setting": "B16 melanoma cells", "result": "equivalent"}]}
{"compound": "COCc1cccc(C[C@H](O)/C=C/[C@H]2[C@H](O)CC(=O)[C@@H]2CCSCCCC(=O)O)c1", "note": "[Compound M-(1), 4-{[2-((1R,2R,3R)-3-hydroxy-2-{(1E,3S)-3-hydroxy-4-[3-(methoxymethyl)phenyl]but-1-enyl}-5-oxocyclopentyl)ethyl]sulfanyl}butanoic acid]", "values": [{"measurement": "Ratio of HSVgpB-specific CTLs", "setting": "HSVgpB-specific CTLs; [3]", "result": 0.30}, {"measurement": "Ratio of TRP-2-specific CTLs", "setting": "TRP-2-specific CTLs [2]; [4]", "result": 1.66}]}
{"compound": "HSVgpB: herpes simplex virus-specific antigen peptide; Herpes Simplex Virus glycoprotein B 498-505 (SEQ ID NO. 2) (SSIEFARL; Herpes Simplex Virus glycoprotein B 498-505) [reference compound]", "values": [{"measurement": "Ratio of HSVgpB-specific CTLs", "setting": "HSVgpB-specific CTLs; TS followed by application of HSVgpB alone", "result": 0.25}]}
{"compound": "O=C(O)CCCSCCN1C(=O)CC[C@@H]1/C=C/[C@@H](O)Cc1ccc(F)cc1", "note": "[Compound L-(1), 4-[(2-{(2R)-2-[(1E,3S)-4-(4-fluorophenyl)-3-hydroxybut-1-enyl]-5-oxopyrrolidin-1-yl}ethyl)sulfanyl]butanoic acid]", "values": [{"measurement": "Ratio of HSVgpB-specific CTLs", "setting": "HSVgpB-specific CTLs; [3]", "result": 0.29}, {"measurement": "Ratio of TRP-2-specific CTLs", "setting": "TRP-2-specific CTLs [2]; [4]", "result": 1.92}]}
